Measurements: patent US20120225862A1, “HETEROARYL BENZAMIDES, COMPOSITIONS AND METHODS OF USE” (AUCKLAND UNIVSERVICES LIMITED, priority 2009, published 2012)

Tests used:
RCC4/VHL = assay: XTT IC50 assay, selectivity RCC4 versus RCC4 with VHL-reintroduced; assay type: cell-based, human; settings: selectivity ratio of XTT IC50 values, RCC4 vs RCC4/VHL
Protocol: (§1) RCC4 parental and RCC4 with VHL-reintroduced (RCC4/VHL), SN12C and SN12C-CSCG-VHL shRNA were maintained in DMEM supplemented with 10% FCS.
(§2) IC50 values for compounds were determined by XTT assay. For 2,3-bis[2-methoxy-4-nitro-5-sulfophenyl]-2H-tetrazolium-5-carboxanilide inner salt (XTT) assays, five thousand cells were plated in 96-well plates. The next day, vehicle or drug was added to each well and incubated for four days. Media was aspirated and phenol red-free medium with 0.3 mg/mL XTT and 2.65 ug/mL N-methyl dibenzopyrazine methyl sulfate was added. This was incubated at 37° C. for 1-2 hours and absorbance was read at 450 nm. IC50 values for each compound were calculated using linear interpolation.
(§3) For 2,3-bis[2-methoxy-4-nitro-5-sulfophenyl]-2H-tetrazolium-5-carboxanilide (XTT) assays, five thousand cells were plated in 96-well plates. The next day, vehicle (DMSO) or drug was added by serial dilution. Four days later, media were aspirated, XTT solution (0.3 mg/ml of XTT (Sigma), 2.65 mg/ml N-methyl dibenxopyrazine methyl sulfate (Simga) in phenol red-free media) was added, and the plates were incubated at 37° C. for 1-2 hours. Metabolism of XTT was quantified by measuring the absorbance at 450 nm. IC50s were calculated using linear interpolation. For clonogenic survival assays, three hundred cells were plated per 60 mm tissue culture dish. The cells were allowed to attach overnight and then treated with vehicle or drug for 14 days. Colonies were fixed and stained with crystal violet (0.1% crystal violet in 95% ethanol). All conditions were measured in triplicate and each experiment was done in duplicate or triplicate. To determine necrosis, cells were treated with drug for a given time point. Media and cells were collected, centrifugated, and resuspended in 0.4% trypan blue (Invitrogen). Live and dead cells were counted on a hematocytometer.

RCC4 = assay: XTT IC50 / viability assay, RCC4 cells; assay type: cell-based, human; settings: Homo sapiens, RCC4, 96 h; XTT assay, four days
Protocol: as §1, §2, §3

Row | SMILES | Ratio (RCC4:RCC/VHL) (RCC4/VHL) | IC50 (RCC4)
1 | CC(C)(C)c1ccc(S(=O)(=O)NCc2ccc(C(=O)Nc3cnccc3C(F)(F)F)cc2)cc1 [Example 122, 4-({[(4-tert-Butylphenyl)sulfonyl]amino}methyl)-N-[4-(trifluoromethyl)-3-pyridinyl]benzamide] | a (“a” reflects a ratio of RCC4/RCC-VHL+ ranging from 1 to 10) | 1000 to 20000 nM
2 | CN(Cc1ccc(C(=O)Nc2cccnc2)cc1)S(=O)(=O)c1ccc(C(C)(C)C)cc1 [Example 138, 4-{[[(4-tert-Butylphenyl)sulfonyl](methyl)amino]methyl}-N-(3-pyridinyl)benzamide] | a (“a” reflects a ratio of RCC4/RCC-VHL+ ranging from 1 to 10) | 1000 to 20000 nM
3 | O=C(Nc1cccnc1)c1ccc(CNS(=O)(=O)c2ccc(Oc3ccccc3)cc2)cc1 [Example 35, 4-((4-Phenoxyphenylsulfonamido)methyl)-N-(pyridin-3-yl)benzamide] | b (“b” reflects from 10 to 100) | 1000 to 20000 nM
4 | O=C(Nc1cccnc1)c1ccc(CNS(=O)(=O)c2cccc(-c3ncccn3)c2)cc1 [Example 27, 4-[({[3-(2-Pyrimidinyl)phenyl]sulfonyl}amino)methyl]-N-(3-pyridinyl)benzamide] | b (“b” reflects from 10 to 100) | < 1000 nM
5 | CN(C)CCNc1ccc(S(=O)(=O)NCc2ccc(C(=O)Nc3cccnc3)cc2)cc1 [Example 133, 4-({[(4-{[2-(Dimethylamino)ethyl]amino}phenyl)sulfonyl]amino}methyl)-N-(3-pyridinyl)benzamide] | c (“c” reflects a ratio of >100) | < 1000 nM
6 | COc1ccc(-c2ccc(S(=O)(=O)NCc3ccc(C(=O)Nc4cccnc4)cc3)cc2)cc1 [Example 52, 4-({[(4′-Methoxy[1,1′-biphenyl]-4-yl)sulfonyl]amino}methyl)-N-(3-pyridinyl)benzamide] | b (“b” reflects from 10 to 100) | 1000 to 20000 nM
7 | CCN(CC)Cc1ccc(S(=O)(=O)NCc2ccc(C(=O)Nc3cccnc3)cc2)cc1 [Example 78, 4-{[({4-[(Diethylamino)methyl]phenyl}sulfonyl)amino]methyl}-N-(3-pyridinyl)benzamide] | c (“c” reflects a ratio of >100) | < 1000 nM
8 | COC1CCN(Cc2ccc(S(=O)(=O)NCc3ccc(C(=O)Nc4cccnc4)cc3)cc2)CC1 [Example 84, 4-{[({4-[(4-Methoxy-1-piperidinyl)methyl]phenyl}sulfonyl)amino]methyl}-N-(3-pyridinyl)benzamide] | c (“c” reflects a ratio of >100) | < 1000 nM
9 | COCC#Cc1ccc(S(=O)(=O)NCc2ccc(C(=O)Nc3cccnc3)cc2)cc1 [Example 98, 4-{[({4-[3-(Methyloxy)-1-propynyl]phenyl}sulfonyl)amino]methyl}-N-(3-pyridinyl)benzamide] | a (“a” reflects a ratio of RCC4/RCC-VHL+ ranging from 1 to 10) | 1000 to 20000 nM
10 | Cc1ccc(S(=O)(=O)NCc2ccc(C(=O)Nc3cccnc3)cc2)c(C)c1 [Example 64, 4-((2,4-Dimethylphenylsulfonamido)methyl)-N-(pyridin-3-yl)benzamide] | a (“a” reflects a ratio of RCC4/RCC-VHL+ ranging from 1 to 10) | 1000 to 20000 nM
11 | Cc1nc(-c2cccc(S(=O)(=O)NCc3ccc(C(=O)Nc4cccnc4)cc3)c2)cs1 [Example 31, 4-[({[3-(2-Methyl-1,3-thiazol-4-yl)phenyl]sulfonyl}amino)methyl]-N-(3-pyridinyl)benzamide] | b (“b” reflects from 10 to 100) | 1000 to 20000 nM
12 | O=C(Nc1cccnc1)c1ccc(CNS(=O)(=O)c2cccc(C(F)(F)F)c2)cc1 [Example 23, N-(Pyridin-3-yl)-4-((3-(trifluoromethyl)phenylsulfonamido)methyl)benzamide] | b (“b” reflects from 10 to 100) | < 1000 nM
13 | COc1ccc(S(=O)(=O)NCc2ccc(C(=O)Nc3cccnc3)cc2)cc1C(C)(C)C [Example 62, 4-((3-tert-Butyl-4-methoxyphenylsulfonamido)methyl)-N-(pyridin-3-yl)benzamide] | c (“c” reflects a ratio of >100) | < 1000 nM
14 | Cc1cc(C)cc(S(=O)(=O)NCc2ccc(C(=O)Nc3cccnc3)cc2)c1 [Example 66, 4-((3,5-Dimethylphenylsulfonamido)methyl)-N-(pyridin-3-yl)benzamide] | c (“c” reflects a ratio of >100) | < 1000 nM
15 | Cc1nnc(-c2cccc(S(=O)(=O)NCc3ccc(C(=O)Nc4cccnc4)cc3)c2)o1 [Example 29, 4-[({[3-(5-Methyl-1,3,4-oxadiazol-2-yl)phenyl]sulfonyl}amino)methyl]-N-(3-pyridinyl)benzamide] | b (“b” reflects from 10 to 100) | 1000 to 20000 nM
16 | O=C(Nc1cccnc1)c1ccc(CNS(=O)(=O)c2ccc(CN3CCCCC3)cc2)cc1 [Example 81, 4-[({[4-(1-Piperidinylmethyl)phenyl]sulfonyl}amino)methyl]-N-(3-pyridinyl)benzamide] | b (“b” reflects from 10 to 100) | < 1000 nM
17 | O=C(Nc1cccnc1)c1ccc(CNS(=O)(=O)c2ccccc2)cc1 [Example 2, 4-(Phenylsulfonamidomethyl)-N-(pyridin-3-yl)benzamide] | a (“a” reflects a ratio of RCC4/RCC-VHL+ ranging from 1 to 10) | 1000 to 20000 nM
18 | COc1ccc(S(=O)(=O)NCc2ccc(C(=O)Nc3cccnc3)cc2)cc1OC [Example 61, 4-((3,4-Dimethoxyphenylsulfonamido)methyl)-N-(pyridin-3-yl)benzamide] | c (“c” reflects a ratio of >100) | < 1000 nM
19 | CC(C)(C)c1ccc(S(=O)(=O)NCc2ccc(C(=O)Nc3ccc(N4CCOCC4)nc3)cc2)cc1 [Example 117, 4-({[(4-tert-Butylphenyl)sulfonyl]amino}methyl)-N-[6-(4-morpholinyl)-3-pyridinyl]benzamide] | a (“a” reflects a ratio of RCC4/RCC-VHL+ ranging from 1 to 10) | > 20000 nM
20 | COc1ccc(S(=O)(=O)NCc2ccc(C(=O)Nc3cccnc3)cc2)cc1 [Example 33, 4-((4-Methoxyphenylsulfonamido)methyl)-N-(pyridin-3-yl)benzamide] | b (“b” reflects from 10 to 100) | 1000 to 20000 nM
21 | O=C(Nc1cccnc1)c1ccc(CNS(=O)(=O)c2ccc(C#CCN3CCOCC3)cc2)cc1 [Example 136, 4-{[({4-[3-(4-Morpholinyl)-1-propynyl]phenyl}sulfonyl)amino]methyl}-N-(3-pyridinyl)benzamide] | b (“b” reflects from 10 to 100) | < 1000 nM
22 | O=C(Nc1cccnc1)c1ccc(CNS(=O)(=O)c2cccc(Cl)c2)cc1 [Example 21, 4-((3-Chlorophenylsulfonamido)methyl)-N-(pyridin-3-yl)benzamide] | b (“b” reflects from 10 to 100) | < 1000 nM
23 | C#Cc1ccc(S(=O)(=O)NCc2ccc(C(=O)Nc3cccnc3)cc2)cc1 [Example 95, 4-((4-Ethynylphenylsulfonamido)methyl)-N-(pyridin-3-yl)benzamide] | b (“b” reflects from 10 to 100) | 1000 to 20000 nM
24 | O=C(Nc1cccnc1)c1ccc(CNS(=O)(=O)c2ccc(Cl)cc2)cc1 [Example 44, 4-((4-Chlorophenylsulfonamido)methyl)-N-(pyridin-3-yl)benzamide] | b (“b” reflects from 10 to 100) | 1000 to 20000 nM
25 | O=C(Nc1cccnc1)c1ccc(CNS(=O)(=O)c2cccc(-c3ccccc3)c2)cc1 [Example 26, 4-{[([1,1′-Biphenyl]-3-ylsulfonyl)amino]methyl}-N-(3-pyridinyl)benzamide] | b (“b” reflects from 10 to 100) | 1000 to 20000 nM
26 | CN(C(=O)c1ccc(CNS(=O)(=O)c2ccccc2)cc1)c1cccnc1 [Example 90, N-Methyl-4-{[(phenylsulfonyl)amino]methyl}-N-(3-pyridinyl)benzamide] | a (“a” reflects a ratio of RCC4/RCC-VHL+ ranging from 1 to 10) | 1000 to 20000 nM
27 | O=C(Nc1cccnc1)c1ccc(CNS(=O)(=O)c2ccc(CCCO)cc2)cc1 [Example 104, 4-[({[4-(3-Hydroxypropyl)phenyl]sulfonyl}amino)methyl]-N-(3-pyridinyl)benzamide] | c (“c” reflects a ratio of >100) | < 1000 nM
28 | COC1CCN(c2ccc(S(=O)(=O)NCc3ccc(C(=O)Nc4cccnc4)cc3)cc2)CC1 [Example 129, 4-[({[4-(4-Methoxy-1-piperidinyl)phenyl]sulfonyl}amino)methyl]-N-(3-pyridinyl)benzamide] | c (“c” reflects a ratio of >100) | < 1000 nM
